Where “and” joins values, the source holds several entries; their conditions need not be identical. Identical values can stand only once. Entries after “also recorded” stand apart in the source; their conditions may differ. Like-named read-outs stand apart in the source and are kept apart here.
Columns and labels:
Set-up in all cases: species or system Ruminococcus gnavus ATCC 29149
RgCBM40 [1] = target: T1, RgCBM40 (Mediterraneibacter gnavus (Ruminococcus gnavus), UniProt A7B557); test: STD NMR of sialoglycans with RgCBM40 WT; conditions: 1 mM sialoglycan, 50 μM RgCBM40 WT, 288 K; 'exception' = monosaccharides for which binding was not detected
T1 sequence (A7B557 entry or part of it): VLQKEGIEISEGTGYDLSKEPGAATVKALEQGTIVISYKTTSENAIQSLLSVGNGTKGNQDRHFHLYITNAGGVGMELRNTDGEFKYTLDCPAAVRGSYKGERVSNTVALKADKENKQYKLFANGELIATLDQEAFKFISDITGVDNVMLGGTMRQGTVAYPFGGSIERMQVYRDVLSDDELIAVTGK
Protocol: ^1H and ^13C resonance assignment for all the sugars was performed on the bases of 1D ^1H, 2D DQF-COSY, TOCSY, HSQC and NOESY experiments run on the free ligands in unbuffered D2O, pH 7.0. For STD NMR experiments, all the samples consisted of 1 mM sialoglycans and 50 μM RgCBM40 (WT or I95A mutant) in D2O buffer solution of 10 mM Tris-d11 pH 7.8 and 100 mM NaCl (ligand: protein ratio 20:1). An STD pulse sequence that included 2.5 ms and 5 ms trim pulses and a 3 ms spoil gradient was used. Saturation was achieved applying a train of 50 ms Gaussian pulses (0.40 mW) on the f2 channel, at 0.60 p.p.m. (on-resonance experiments) and 40 p.p.m. (off-resonance experiments). The broad protein signals were removed using a 40 ms spinlock (T1ρ) filter. All the experiments were recorded at ^1H frequency of 800.23 MHz on a Bruker Avance III spectrometer equipped with a 5 mm probe TXI 800 MHz H-C/N-D-05 Z BTO, at 288 K. For all the sialoglycans in the presence of RgCBM40, an STD experiment with a saturation time of 2 s and a relaxation delay of 5 s was performed, as a first test for binding. For the confirmed binders, the STD NMR experiments were carried out at different saturation times (0.5, 1, 2, 3, 4 and 5 s) with 1 K scans and relaxation delay of 5 s, in order to obtain the binding epitope mapping. The resulting build-up curves for each proton were fitted mathematically to a mono-exponential equation (y = a×[1-exp(b×x)]), from which the initial slopes (a×b) were obtained. For each ligand, the binding epitope mapping was obtained by dividing the initial slopes by the one of the H7 proton of the corresponding sialic acid ring, to which an arbitrary value of 100% was assigned. This normalisation of the STD values allows the comparison across all the sialoglycans.

RgCBM40 [2] = target: T1, RgCBM40; test: Sialoglycan microarray binding of RgCBM40; conditions: for Binding intensity on sialoglycan microarray, fold less: RgCBM40, βR1-linked glycans; for Binding of RgCBM40 on sialoglycan microarray: RgCBM40 at 20 µg ml^−1
Protocol: (§1) Glycan microarrays were fabricated using epoxide-derivatized slides as previously described. Printed glycan microarray slides were blocked by ethanolamine, washed and dried. Slides were then fitted in a multi-well microarray hybridisation cassette (AHC4X8S, ArrayIt, Sunnyvale, CA, USA) to divide into 8 subarrays. The subarrays were blocked with ovalbumin (1% w/v) in PBS (pH 7.4) for 1 h at room temperature, with gentle shaking. Subsequently, the blocking solution was removed and diluted protein samples of RgCBM40 and RgGH33 D282A with various concentrations were added to each subarray. After incubating the samples for 2 h at room temperature with gentle shaking, the slides were washed. Diluted anti-His-HiLyte Flour 555 antibodies in PBS were added to the subarrays, incubated for 1 h at room temperature, washed and dried. The microarray slides were scanned by Genepix 4000B microarray scanner (Molecular Devices Corp., Union City, CA, USA). The data analysis was performed using Genepix Pro 7.0 analysis software (Molecular Devices Corp.). It is important to note that glycans on the array with sialic acid O-acetyl groups undergo gradual losses of these labile ester groups. Therefore, definitive conclusions about 9-O-acetylation are only possible in instances wherein binding is exclusively to the O-acetylated sialoglycan spot, and not to the corresponding non-O-acetylated spot.

RgGH33 D282A = test: Sialoglycan microarray binding of RgGH33 D282A; conditions: RgGH33 D282A at 200 µg ml^−1
Protocol: as §1

RgCBM40 [3] = target: T1, RgCBM40; test: ITC of sialoglycans binding to RgCBM40 wild type; conditions: RgCBM40 WT; for Kd: ITC in PBS, 115-230 μM protein in cell, syringe 10 mM sugar (25 mM for Neu5Ac), * = estimate only, Kd too high to determine
Protocol: Isothermal titration calorimetry (ITC) experiments were performed using the PEAQ-ITC system (Malvern, Malvern, UK) with a cell volume of 200 µl. Prior to titration protein samples were exhaustively dialysed into PBS. The ligand was dissolved in the dialysis buffer. The cell protein concentration was 115 µM (except for mutant I95A where it was 173 µM and the wild-type interaction with 6′SL where it was 230 µM) and the syringe ligand concentration was 10 mM (25 mM for Neu5Ac). Controls with titrant (sugar) injected into buffer only were subtracted from the data. Analysis was performed using Malvern software, using a single-binding site model. The stoichiometry of binding sites was set to 1.0 as this was evident from the crystal structure. Quantitative and most qualitative experiments were carried out in triplicate.

Neu5Gcα6GalαOC3H6N3 [Neu5Gc-STn]
Binding to RgCBM40 detected by STD NMR (RgCBM40 [1]): detected

Neu5Gcα3Galβ3GalNAcβR1 [Neu5Gc-TF]
Binding intensity on sialoglycan microarray, fold less (RgCBM40 [2]): 5–10 fold

CC(=O)NC1C(O)CC(OC2C(O)C(CO)OC(OC3C(O)C(CO)OC(O)C3NC(C)=O)C2O)(C(=O)O)OC1C(O)C(O)CO (stereo not drawn) [STF, Neu5Acα3Galβ3GalNAc]
Binding of RgGH33 D282A on sialoglycan microarray (RgGH33 D282A): interacted weakly

Neu5,9Ac2-TF9Ac2α2-3TF
Binding of RgCBM40 on sialoglycan microarray (RgCBM40 [2]): bound

CC(=O)NC1C(O)CC(OC2C(O)C(O)OC(CO)C2O)(C(=O)O)OC1C(O)C(O)CO (stereo not drawn) [3′SGal, Neu5Acα3Gal]
Binding to RgCBM40 detected by STD NMR (RgCBM40 [1]): detected

Neu5Acα2-3TF
Binding of RgCBM40 on sialoglycan microarray (RgCBM40 [2]): bound

Neu5Acα6GalαOC3H6N3 [Neu5Ac-STn]
Binding to RgCBM40 detected by STD NMR (RgCBM40 [1]): detected

Neu5Gc9Acα3Galβ3GalNAcβR1 [Neu5Gc9Ac-TF]
Binding intensity on sialoglycan microarray, fold less (RgCBM40 [2]): 5–10 fold

CC(=O)N[C@H]1[C@H]([C@H](O)[C@H](O)CO)OC(OC[C@H]2OC(O)[C@H](O)[C@@H](O)[C@H]2O)(C(=O)O)C[C@@H]1O (stereo partly drawn) [6′SGal, Neu5Acα6 Gal]
Binding to RgCBM40 detected by STD NMR (RgCBM40 [1]): detected

O=C(CO)N[C@H]1[C@H]([C@H](O)[C@H](O)CO)O[C@@](O[C@H]2[C@@H](O)[C@@H](CO)O[C@@H](O[C@H]3[C@H](O)[C@@H](O)C(O)O[C@@H]3CO)[C@@H]2O)(C(=O)O)C[C@@H]1O (stereo partly drawn) [3′SLGc, Neu5Gcα3Lac]
Kd (RgCBM40 [3]; Kd): 2.69 mM and ~3 mM | Binding to RgCBM40 detected by STD NMR (RgCBM40 [1]): detected

Neu5Acα3Galβ3GalNAcβ3Lac
Binding of RgGH33 D282A on sialoglycan microarray (RgGH33 D282A): interacted weakly

Neu5Acα3Lacβ [GM3]
Binding of RgGH33 D282A on sialoglycan microarray (RgGH33 D282A): interacted weakly

CC(=O)N[C@H]1[C@H]([C@H](O)[C@H](O)CO)O[C@@](O[C@H]2[C@@H](O)[C@@H](CO)O[C@@H](O[C@H]3[C@H](O)[C@@H](NC(C)=O)C(O)O[C@@H]3CO)[C@@H]2O)(C(=O)O)C[C@@H]1O (stereo partly drawn) [3′SLN, Neu5Acα3LacNAcβ]
Binding to RgCBM40 detected by STD NMR (RgCBM40 [1]): detected | Binding of RgGH33 D282A on sialoglycan microarray (RgGH33 D282A): interacted weakly

O=C(CO)N[C@H]1[C@H]([C@H](O)[C@H](O)CO)OC(O)(C(=O)O)C[C@@H]1O (stereo partly drawn) [Neu5Gc]
Binding to RgCBM40 (in words) (RgCBM40 [3]): weak binding | Kd (RgCBM40 [3]; read-out: Kd): ~21 mM and ~20 mM | Binding to RgCBM40 detected by STD NMR (RgCBM40 [1]): exception; also recorded: no interaction was observed

Neu5,9Ac2α2-6Tn
Binding of RgCBM40 on sialoglycan microarray (RgCBM40 [2]): bound

Neu5Acα2-6Tn
Binding of RgCBM40 on sialoglycan microarray (RgCBM40 [2]): bound

O=C(CO)N[C@H]1[C@H]([C@H](O)[C@H](O)CO)O[C@@](OC[C@H]2O[C@@H](O[C@H]3[C@H](O)[C@@H](O)C(O)O[C@@H]3CO)[C@H](O)[C@@H](O)[C@H]2O)(C(=O)O)C[C@@H]1O (stereo partly drawn) [6′SLGc, Neu5Gcα6Lac]
Kd (RgCBM40 [3]; Kd): ~11 mM and > 10 mM | Binding to RgCBM40 detected by STD NMR (RgCBM40 [1]): detected

α2-3-sialylated Lewis X [3′SLX]
Binding of RgCBM40 on sialoglycan microarray (RgCBM40 [2]): bound

CC(=O)N[C@H]1[C@H]([C@H](O)[C@H](O)CO)O[C@](OC[C@H]2O[C@@H](O[C@H]3[C@H](O)[C@@H](NC(C)=O)C(O)O[C@@H]3CO)[C@H](O)[C@@H](O)[C@H]2O)(C(=O)O)C[C@@H]1O (stereo partly drawn) [6′SLN, Neu5Acα6LacNAc]
Binding to RgCBM40 detected by STD NMR (RgCBM40 [1]): detected

CC(=O)N[C@H]1[C@H]([C@H](O)[C@H](O)COC(C)=O)O[C@@](O[C@H]2[C@@H](O)[C@@H](CO)O[C@@H](OCCCN=[N+]=[N-])[C@@H]2O)(C(=O)O)C[C@@H]1O [Neu5,9Ac2α3GalβR1]
Binding of RgCBM40 on sialoglycan microarray (RgCBM40 [2]): highest binding

CC(=O)NC1C(O)CC(OC2C(O)C(CO)OC(OC3C(O)C(CO)OC(OCCCN=[N+]=[N-])C3NC(C)=O)C2O)(C(=O)O)OC1C(O)C(O)CO (stereo not drawn) [STFαOC3H6N3]
Binding to RgCBM40 detected by STD NMR (RgCBM40 [1]): detected

CC(=O)N[C@H]1C2OC(C(=O)O)(C[C@@H]1O)O[C@@H]2[C@H](O)CO (stereo partly drawn) [2,7-anhydro-Neu5Ac]
Binding to RgCBM40 detected by STD NMR (RgCBM40 [1]): exception

Reference: article PMC5736709, “Unravelling the specificity and mechanism of sialic acid recognition by the gut symbiont Ruminococcus gnavus” (Nature Communications, 2017)
